In patent publication US20090253709A1 (NATIONAL DEFENSE MEDICAL CENTER, priority 2008, published 2009):

How the values were obtained:
BJ1 = assay: MTT assay in BJ1 cells; assay type: cell-based
Method: (§1) A total of 2×10^3 […] cells were seeded in the 96-well cell culture plate, and incubated with DMEM (GIBCO®)/glucose mixture and Medium 199 (GIBCO®)/10% FBS/1 mM sodium pyruvate (GIBCO®)/4 mM L-glutamine (GIBCO®) mixture at a ratio of 4:1 at 37° C. for 24 hours. […] After 48 hours of drug treatment, the cultured medium were collected for performing the analysis of SEAP activity. The cells were washed with 1×PBS once immediately, and the MTT assay was performed to compare the compounds with the relative toxicity or the influence to the proliferation and activity. Mitochondria is the place for cellular respiration, and there are many reductive reactions catalyzed by dehydrogenases. MTT is a water-soluble yellow compound, and the […] will be formed after reduction. This crystal can be dissolved in the organic solvent, and has high absorbance at the wavelength of 570 nm. The higher cellular activity or more cell numbers, the more generated crystal violets. Therefore, the cellular activity and cell number can be obtained by the MTT assay. MTT solution was prepared by dissolving MTT powder in PBS solution to achieve 5 mg/ml, filtrated and stored at 4° C. Lysis buffer contained 20% (w/v) of SDS in 50% of N,N-dimethylformamide (DMF, Riedel-deHaën). After the cells were incubated in the 96-well culture plate, the original medium was discarded, 100 μl of the fresh serum-free medium per well and 25 μl of MTT solution per well were added in respectively, and the cells were further incubated in the CO2 incubator at 37° C. for 4 hours. Then, 100 μl of lysis buffer per well was added in and incubated overnight in the CO2 incubator at 37° C. The absorbance at 570 nm was determined by the ELISA reader.

H1299 = assay: MTT assay in H1299 cells; assay type: cell-based
Method: as §1, with “H1299 is a non-small cell lung cancer cell line with telomerase activity. The cell extract of H1299 cell lines can be used for selecting the telomerase activity inhibitors in vitro and the telomerase activity-inhibited substances in vivo. H1299 cell line was incubated with RPMI 1640 medium supplemented with 10% of fetal bovine serum (FBS). A total” for “A total”, “ELISA reader. The selection of telomerase inhibitors of the anthraquinone compounds provided in the present invention was performed by the […]-driven SEAP system. SEAP is the communication gene in this drug selection model. The SEAP inhibition was shown as follows. […] Subsequently, the linear slope of absorbance to the measuring time was calculated, and the variance of absorbance at 405 nm per minute was represented and compared with the SEAP-producing result of drug-untreated H1299 cells. In addition, the influence of the cell-treated drug solution to the cellular proliferation and the drug toxicity to the cells were considered, and the cellular growth was evaluated by the MTT assay. The drug-treated cells were analyzed by the SEAP assay and the data analysis of MTT assay at the same time. Both results were compared so as to delete the influence of cell number or the activity to SEAP, and the dose-dependent phenomenon could be anticipated in the range of drug concentration designed by the laboratory. […] Since the chemically-synthetic drugs have colors thereon, the SEAP value of drug-treatment without cells was also determined to be the background value which was deducted while treating with the drugs. The candidate drug for inhibiting telomerase on the hTERT gene expression level was evaluated and anticipated.” for “ELISA reader.”

Which viability (BJ1; 1 µM) does the source give for `O=C1c2ccc(NC(=O)C3CCCC3)cc2C(=O)c2cc(NC(=O)C3CCCC3)ccc21` [Compound 33, 2,7-Bis(cyclopentanecarbonamido)anthraquinone] here?
The viability was 77 ± 1%.

And the viability (BJ1; 10 µM)?
The viability was 68 ± 1%.

And the viability (BJ1; 100 µM)?
The viability was 58 ± 1%.

What about the viability (H1299; 1 µM) of the same compound?
The viability was 91 ± 12%.

And the viability (H1299; 10 µM)?
The viability was 77 ± 6%.

And the viability (H1299; 100 µM)?
Its viability is 42 ± 12%.
